Reference: US8815835B2, “9-aminonoscapine and its use in treating cancers, including drug-resistant cancers” (Emory University, priority 2008, dated 2014)

Columns and labels:
tubulin [1] = assay: Tubulin binding assay (fluorescence quenching, dissociation constant); details: 2 μM tubulin, 25 mM PIPES pH 6.8, 30 min at 25° C.; double reciprocal plot; mean±SD, four experiments
Protocol: Noscapine and 9-aminonoscapine (0-150 μM) were incubated with 2 μM tubulin in 25 mM PIPES, pH 6.8, 3 mM MgSO4, and 1 mM EGTA for 30 min at 25° C. The fluorescence intensities of tubulin in the absence and presence of different concentrations of the agents were monitored in a JASCO FP-6500 spectrofluorometer (JASCO, Tokyo, Japan) using a cuvette of 0.3-cm path length.
The excitation wavelength was 295 nm. The inner filter effects were corrected using a formula: […],
where Aex and Aem are the absorbance at the excitation and emission wavelengths.
The dissociation constant (Kd) was estimated using the following equation. ΔF=ΔFmaxL/(Kd+L)
where, ΔF is change in the fluorescence intensity of the tubulin upon binding to noscapine or 9-aminonoscapine, ΔFmax is the maximum change in the fluorescence intensity of the protein when it is fully bound with noscapine or 9-aminonoscapine, and L is the concentration of the ligand.
The ΔFmax value was calculated by the GraphPad Prism 5 software. ΔF was calculated by subtracting the fluorescence intensity of tubulin in the absence of noscapine or 9-aminonoscapine from the fluorescence intensity of tubulin in the presence of different concentrations of noscapine or 9-aminonoscapine.
The data were statistically analyzed and curve fitted using GraphPad Prism 5 software. […]

[2] = test system: 1A9 (ovarian cancer cells); assay: Cell proliferation inhibition, 1A9; format: cell-based; details: 1A9, in words
tubulin [3] = assay: Sedimentation assay of tubulin polymerization (polymer mass); format: biochemical; details: for Average % increase in polymer level: tubulin 10 μM, 37° C., 30 min
Protocol: Tubulin solution was centrifuged for 10 min at 80000 g at 4° C. Soluble tubulin was measured by Bradford method. Tubulin (10 μM) was mixed with different concentrations of 9-amino-Noscapine ([…]) in the assembly buffer (100 mM PIPES at pH 6.8, 3 mM MgSO4, 1 mM EGTA, 1 mM GTP, and 1 M sodium glutamate). A reaction control with DMSO was also set up.
Polymerization was carried on by maintaining the temperature at 37° C. in the water bath for 30 min. After polymerization, the reaction mixture was centrifuged at 120000 g at 30° C. for 30 min. The soluble tubulin content was measured by Bradford method. Polymer mass of tubulin was found out by deducting soluble tubulin mass from the total tubulin content.
Tubulin was polymerized in presence or absence of 9-aminonoscapine to observe its effect on polymer formation. Polymer mass of tubulin was measured by sedimentation assay. Before polymerization soluble tubulin comprises total tubulin. Total tubulin content was measured by measuring soluble tubulin by Bradford method. After polymerization, soluble tubulin content was measured and deducted from total tubulin content to find out the polymeric tubulin level.

[4] = test system: teniposide-resistant variant CEM/VM-1-5; assay: Cell proliferation inhibition, CEM/VM-1-5; format: cell-based, human; details: CEM/VM-1-5, in words
[5] = test system: panel of 60 human tumor cell lines; assay: NCI 60-tumor cell line panel, Sulforhodamine B proliferation assay; format: cell-based; details: 48 h treatment, in words; IC50 values only in FIG. 2
Protocol: The panel of 60 human tumor cell lines is organized into subpanels representing leukemia, non-small cell lung, colon, CNS, melanoma, renal, ovarian, breast and prostrate cancer lines. Cells were treated with 9-aminonoscapine at increasing gradient concentrations for 48 h. The IC50 values, which stand for the drug concentration needed to prevent cell proliferation by 50% was then measured using an in vitro Sulforhodamine B assay. Panels show bar-graphically the comparison of IC50 values of 9-aminonoscapine (black bars) for cancer cell lines of various tissue origins.

[6] = test system: vinblastine-resistant variant CEM/VLB100; assay: Cell proliferation inhibition, CEM/VLB100; format: cell-based, human; details: CEM/VLB100, in words
[7] = test system: human lymphoblastoid cells CEM; assay: Cell proliferation inhibition, CEM; format: cell-based; details: in words
[8] = test system: paclitaxel-resistant variant (1A9/PTX22); assay: Cell proliferation inhibition, 1A9/PTX22; format: cell-based; details: 1A9/PTX22, in words

Row | Compound | Kd (tubulin [1]) | inhibition of cell proliferation [2] | Average % increase in polymer level (tubulin [3]; 25 μM 9-aminonoscapine) | Average % increase in polymer level (tubulin [3]; 50 μM 9-aminonoscapine) | Average % increase in polymer level (tubulin [3]; 100 μM 9-aminonoscapine) | Average % increase in polymer level (tubulin [3]; 100 μM 9-aminonoscapine, listed as 9-amino-noscapine) | effect on the assembly of tubulin into microtubules in vitro (tubulin [3]; in words) | inhibition of cell proliferation [4] | proliferation of various human cancer cells [5] | inhibition of cell proliferation [6] | inhibition of cell proliferation [7] | inhibition of cell proliferation [8]
1 | COc1ccc2c(c1OC)C(=O)O[C@@H]2[C@H]1c2c(cc3c(c2OC)OCO3)CCN1C [noscapine, (S)-6,7-dimethoxy-3-((R)-4-methoxy-6-methyl-5,6,7,8-tetrahydro[1,3]-dioxolo-[4,5-g]isoquinolin-5-yl)isobenzo-furan-1(3H)-one] | 152 ± 1 µM | – | – | – | – | – | – | – | – | – | – | –
2 | COc1ccc2c(c1OC)C(=O)O[C@@H]2[C@H]1c2c(c(N)c3c(c2OC)OCO3)CCN1C [9-aminonoscapine, (S)-6,7-dimethoxy-3-((R)-4-methoxy-6-methyl-9-amino-5,6,7,8-tetrahydro-[1,3]dioxolo[4,5-g]isoquinolin-5-yl)isobenzofuran-1(3H)-one] | 14 ± 1 µM | effectively inhibits cell proliferation | 2.8 ± 0.98% | 3.2 ± 3.6% | 6.3 ± 3.8% | 6.3±3.8% | negligible effect | effectively inhibits cell proliferation | inhibits the proliferation | effectively inhibits cell proliferation | effectively inhibits cell proliferation | effectively inhibits cell proliferation
